Laboratory results: US6822146B2, “Sulfonylurea-tolerant sunflower line M7” (priority 2000, dated 2004)
Structures can show the parent of a compound that is named as a salt.

Key:
O. cernua = details: preemergence application of a low dose (2 to 6 g/ha), with sunflower tolerance; cited from earlier work
[1] = test system: BC4-M5M12 × PHA155 hybrid; assay: Test E injury to sunflower hybrid; format: in vivo; details: in vivo
Procedure: (§1) Based on the results from Test D, a modified protocol was developed to include three timings of post-emergence treatment. The hybrid BC4-M5M12 (female parent)×PHA155 restorer line (male parent) described in Test C was used in this test. Various herbicide programs were tested using three replications. […] Seed coatings of these formulated herbicides were applied to 6 kg of seeds in such amount that considering the distribution of the coated seeds in each pot, the herbicide active ingredient (a.i.) application rates per hectare were as indicated.
(§2) The treatments were applied similar to the methods described for Test D. Pre-emergence applications were broadcast only, not soil incorporated. For pre-emergence application, the pots were sprayed using the high rates of the herbicides two days after sowing the sunflower seeds. Post-emergence treatments were applied at the 4-6 leaf stage of sunflower (corresponding to early stage of Orobanche attachment; identified as “T1”), the 6-8 leaf stage of sunflower (corresponding to the mid stage of Orobanche attachment; nodules <5 mm diameter; identified as “T2”) and 8-12 leaf stage of sunflower (corresponding to late stage of Orobanche attachment; identified as “T3”). The mid-stage applications included the high as well as low application rates of each herbicide.
(§3) For comparison were also included in this test other acetolactate synthase-inhibiting herbicides reported in the literature as giving good weed control of Orobanche (L. García-Torres et al., Weed Research 1994, 34, 395-402; L. García-Torres et al., Weed Technology 1995, 9, 819-824; J. Hershenhorn et al., Weed Technology 1998, 12, 108-114).

M5M7 = assay: Test B greenhouse phytotoxicity, M5M7; format: in vivo, sunflower; details: in vivo
Procedure, shortened: (§4)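 Formulated ALS-inhibiting herbicides sprayed post-emergence at the 4-leaf stage on homozygous mutant sunflower inbreds (M5 maintainers and BC4 male-sterile back-crosses) in the greenhouse, at rates commonly used in registered crops. Two replicates; crop injury rated as % phytotoxicity, 0% meaning no injury.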

M5M11 = assay: Test B greenhouse phytotoxicity, M5M11; format: in vivo, sunflower; details: in vivo
Procedure, shortened: as §4

[2] = test system: homozygous progeny of the three mutant sources; format: in vivo, sunflower; details: Test B application rates, post-emergence
Procedure, shortened: as §4

M5M12 = assay: Test B greenhouse phytotoxicity, M5M12; format: in vivo, sunflower; details: in vivo
Procedure, shortened: as §4

BC4-M5M12 = assay: Test B greenhouse phytotoxicity, BC4-M5M12; format: in vivo, sunflower; details: in vivo
Procedure, shortened: as §4

BC4-M5M7 = assay: Test B greenhouse phytotoxicity, BC4-M5M7; format: in vivo, sunflower; details: in vivo
Procedure, shortened: as §4

BC4-M5M11 = assay: Test B greenhouse phytotoxicity, BC4-M5M11; format: in vivo, sunflower; details: in vivo
Procedure, shortened: as §4

Orobanche cumana = assay: Test E control of Orobanche cumana in resistant sunflower hybrid; format: in vivo; details: for relative efficacy in controlling Orobanche: Test E rates, metsulfuron-methyl compared with tribenuron-methyl
Procedure: The effect of the various treatments was evaluated 35 days after sowing. The sunflower roots were cleaned by washing in water, and the presence of Orobanche nodules was determined visually and by weighing root wet mass in comparison to check plants free of Orobanche infestation. […] The nodules caused by Orobanche increased root weight, and a correlation (r=0.7) was found between visual scores and weight measurements. Thus the weighing technique could be used to corroborate visual efficacy scorings. Orobanche emergence was also scored but found to be less useful to evaluate treatment efficiency at the evaluation timing of this test.
as §1, §2, §3

'HA89B' seed = assay: Determination of optimum mutagen concentration; format: in vivo, sunflower; details: EMS 20 to 40 mM
Procedure: Batches each consisting of 6000 seeds of ‘HA89B’ were incubated in 0.1 M potassium phosphate buffer (pH 5.6), supplemented with concentrations of EMS between 0 and 80 mM for 18 hours at room temperature, causing the seeds to swell. The seeds were rinsed in sodium thiosulfate for 1 minute to decompose the EMS, then in 5 consecutive water washes to eliminate EMS traces. The overall rinsing procedure lasted 5 hours. Seeds were dried for 2 hours at 25° C. using an airflow drier and then divided into sub-batches of 200 seeds each. To determine the effect of EMS on germination and plant branching, sub-batches were sown in flats right after drying and following 2, 4 and 6 days of storage at 4° C. after drying. Plant branching was used as a visual measure of mutation frequencies. Sub-batches from each EMS concentration were also sown in pots right after drying and grown to maturity to determine effect of EMS treatments on seed setting.

Anagallis arvensis = assay: Test H weed control, field plots; format: in vivo; set-up: concentration or dose not given beside the values; details: 36 days after treatment; g a.i./ha: tribenuron-methyl 22.5, metsulfuron-methyl 6, ethametsulfuron-methyl 16, imazapyr isopropylamine salt 15, aclonifen 1200
Source text: (§5) Field plots (2 m×5 m) were tilled to remove weed cover and then seeded in rows with the following weeds: Capsella bursa pastoris, Atriplex patula, Chenopodium album, Stellaria media, Mecurialis annua, Polygonum persicaria, Amaranthus retroflexus, Polygonum convolvulus, Polygonum aviculare, Viola arvensis, Matricaria inodora, Anagallis arvensis, Sinapis arvensis, Setaria viridis, Solanum nigrum and Echinochloa crusgalli. After 21 days from sowing, at which time the weeds had reached the 2- to 6-leaf stage, herbicide treatments were applied to the plots according to a complete randomized block design, with each herbicide treatment triply replicated. The herbicides were sprayed using standard flat fan nozzles moved perpendicular to the sown lines using water spray volumes of about 296 L/ha.
(§6) Assessments of weed control were made by visual inspection 36 days after herbicide treatment. A visual rating system was used based on a percentage scale from 0 to 100% compared to an adjacent untreated control plot. On this scale 0 represents no visual differences relative to an untreated control and 100 represents complete control of the given weed species.

Atriplex patula = assay: Test H weed control, field plots; format: in vivo; set-up: concentration or dose not given beside the values; details: 36 days after treatment; g a.i./ha: tribenuron-methyl 22.5, metsulfuron-methyl 6, ethametsulfuron-methyl 16, imazapyr isopropylamine salt 15, aclonifen 1200
Source text: as §5, §6

Polygonum aviculare = assay: Test H weed control, field plots; format: in vivo; set-up: concentration or dose not given beside the values; details: 36 days after treatment; g a.i./ha: tribenuron-methyl 22.5, metsulfuron-methyl 6, ethametsulfuron-methyl 16, imazapyr isopropylamine salt 15, aclonifen 1200
Source text: as §5, §6

Echinochloa crus-galli = assay: Test H weed control, field plots; format: in vivo; set-up: concentration or dose not given beside the values; details: 36 days after treatment; g a.i./ha: tribenuron-methyl 22.5, metsulfuron-methyl 6, ethametsulfuron-methyl 16, imazapyr isopropylamine salt 15, aclonifen 1200
Source text: as §5, §6

Sinapis arvensis = assay: Test H weed control, field plots; format: in vivo; set-up: concentration or dose not given beside the values; details: 36 days after treatment; g a.i./ha: tribenuron-methyl 22.5, metsulfuron-methyl 6, ethametsulfuron-methyl 16, imazapyr isopropylamine salt 15, aclonifen 1200
Source text: as §5, §6

Mercurialis annua = assay: Test H weed control, field plots; format: in vivo; set-up: concentration or dose not given beside the values; details: 36 days after treatment; g a.i./ha: tribenuron-methyl 22.5, metsulfuron-methyl 6, ethametsulfuron-methyl 16, imazapyr isopropylamine salt 15, aclonifen 1200
Source text: as §5, §6

Amaranthus retroflexus = assay: Test H weed control, field plots; format: in vivo; set-up: concentration or dose not given beside the values; details: 36 days after treatment; g a.i./ha: tribenuron-methyl 22.5, metsulfuron-methyl 6, ethametsulfuron-methyl 16, imazapyr isopropylamine salt 15, aclonifen 1200
Source text: as §5, §6

Capsella bursa pastoris = assay: Test H weed control, field plots; format: in vivo; set-up: concentration or dose not given beside the values; details: 36 days after treatment; g a.i./ha: tribenuron-methyl 22.5, metsulfuron-methyl 6, ethametsulfuron-methyl 16, imazapyr isopropylamine salt 15, aclonifen 1200
Source text: as §5, §6

Solanum nigrum = assay: Test H weed control, field plots; format: in vivo; set-up: concentration or dose not given beside the values; details: 36 days after treatment; g a.i./ha: tribenuron-methyl 22.5, metsulfuron-methyl 6, ethametsulfuron-methyl 16, imazapyr isopropylamine salt 15, aclonifen 1200
Source text: as §5, §6

Viola arvensis = assay: Test H weed control, field plots; format: in vivo; set-up: concentration or dose not given beside the values; details: 36 days after treatment; g a.i./ha: tribenuron-methyl 22.5, metsulfuron-methyl 6, ethametsulfuron-methyl 16, imazapyr isopropylamine salt 15, aclonifen 1200
Source text: as §5, §6

Matricaria inodora = assay: Test H weed control, field plots; format: in vivo; set-up: concentration or dose not given beside the values; details: 36 days after treatment; g a.i./ha: tribenuron-methyl 22.5, metsulfuron-methyl 6, ethametsulfuron-methyl 16, imazapyr isopropylamine salt 15, aclonifen 1200
Source text: as §5, §6

Polygonum convolvulus = assay: Test H weed control, field plots; format: in vivo; set-up: concentration or dose not given beside the values; details: 36 days after treatment; g a.i./ha: tribenuron-methyl 22.5, metsulfuron-methyl 6, ethametsulfuron-methyl 16, imazapyr isopropylamine salt 15, aclonifen 1200
Source text: as §5, §6

Polygonum persicaria = assay: Test H weed control, field plots; format: in vivo; set-up: concentration or dose not given beside the values; details: 36 days after treatment; g a.i./ha: tribenuron-methyl 22.5, metsulfuron-methyl 6, ethametsulfuron-methyl 16, imazapyr isopropylamine salt 15, aclonifen 1200
Source text: as §5, §6

Setaria viridis = assay: Test H weed control, field plots; format: in vivo; set-up: concentration or dose not given beside the values; details: 36 days after treatment; g a.i./ha: tribenuron-methyl 22.5, metsulfuron-methyl 6, ethametsulfuron-methyl 16, imazapyr isopropylamine salt 15, aclonifen 1200
Source text: as §5, §6

[3] = test system: Orobanche cumana (Race F); assay: Test F sequential application to control Orobanche cumana; format: in vivo; details: post-emergence T3 15 g a.i./ha
Procedure: A greenhouse experiment was performed to identify the best sequential program compared to straight application of tribenuron-methyl or metsulfuron-methyl for control of Orobanche cumana (Race F). The dose range for optimum efficacy was also studied. Both herbicides were used as formulated compositions. […] BC4-M5M7×PHA155 is referred to below as “Hybrid 7”, and BC4-M5M12×PHA155 is referred to below as “Hybrid 12”.
Seed coating treatment was performed as described for Test D. Post-emergence treatments were applied at the 2-4 leaf stage of sunflower (corresponding to early stage of Orobanche attachment; identified as “T1”), the 6 leaf stage of sunflower (corresponding to the mid stage of Orobanche attachment; nodules <5 mm diameter; identified as “T2”) and 8 leaf stage of sunflower (corresponding to late stage of Orobanche attachment; identified as “T3”).
The efficacy was evaluated visually as described for Test D except that the efficacy was assessed ten days later than for Tests D and E. The later evaluation allowed observing any reduction of efficacy due to late Orobanche emergence or re-growth of treated nodules. Efficacy in controlling Orobanche attached to roots was evidenced by nodules comprising black necrotic tissues with no apparent active meristematic area. These nodules could be easily crushed between fingers.

Chenopodium album = assay: Test H weed control, field plots; format: in vivo; details: 36 days after treatment; g a.i./ha: tribenuron-methyl 22.5, metsulfuron-methyl 6, ethametsulfuron-methyl 16, imazapyr isopropylamine salt 15, aclonifen 1200
Source text: as §5, §6

Stellaria media = assay: Test H weed control, field plots; format: in vivo; details: 36 days after treatment; g a.i./ha: tribenuron-methyl 22.5, metsulfuron-methyl 6, ethametsulfuron-methyl 16, imazapyr isopropylamine salt 15, aclonifen 1200
Source text: as §5, §6

COc1nc(C)nc(NC(=O)NS(=O)(=O)c2ccccc2Cl)n1 [Chlorsulfuron, chlorsulfuron]
control of O. cernua (O. cernua): 75-85% | Injury [1]: 0% | Maximum Phytotoxicity (M5M7): 47.5% | Maximum Phytotoxicity (M5M11): 50% | tolerance of the mutants [2]: somewhat sensitive | Maximum Phytotoxicity (M5M12): 45% | Maximum Phytotoxicity (BC4-M5M12): 45% | Maximum Phytotoxicity (BC4-M5M7): 45% | Maximum Phytotoxicity (BC4-M5M11): 50% | relative efficacy in controlling Orobanche (Orobanche cumana): less efficacious in controlling Orobanche | Control (Orobanche cumana; pre-emergence 2 g a.i./ha): 13% | Control (Orobanche cumana; pre-emergence 10 g a.i./ha): 58%

CCOS(C)(=O)=O [EMS, ethyl methanesulfonate]
plants producing viable seed ('HA89B' seed): more than half of the plants produced viable seed | plant branching (visual measure of mutation frequencies) ('HA89B' seed; about 12% of plants from untreated seeds branched): more than half of the plants were branched

CC(C)C1(C)N=C(c2ncccc2C(=O)O)NC1=O (stereo not drawn) [Imazapyr, isopropylamine salt, Imazapyr]
Injury [1]: 0% | sunflower phytotoxicity [1]: transitory phytotoxicity symptoms | weed control, visual rating: Anagallis arvensis (Anagallis arvensis): 100% | weed control, visual rating: Atriplex patula (Atriplex patula): 85% | weed control, visual rating: Polygonum aviculare (Polygonum aviculare): 0% | weed control, visual rating: Echinochloa crus-galli (Echinochloa crus-galli): 27% | weed control, visual rating: Sinapis arvensis (Sinapis arvensis): 100% | weed control, visual rating: Mercurialis annua (Mercurialis annua): 47% | weed control, visual rating: Amaranthus retroflexus (Amaranthus retroflexus): 84% | weed control, visual rating: Capsella bursa pastoris (Capsella bursa pastoris): 100% | weed control, visual rating: Solanum nigrum (Solanum nigrum): 100% | weed control, visual rating: Viola arvensis (Viola arvensis): 0% | weed control, visual rating: Matricaria inodora (Matricaria inodora): 43% | weed control, visual rating: Polygonum convolvulus (Polygonum convolvulus): 94% | weed control, visual rating: Polygonum persicaria (Polygonum persicaria): 100% | weed control, visual rating: Setaria viridis (Setaria viridis): 93% | % Control in Hybrid 7 [3]: 97% | % Control in Hybrid 12 [3]: 97% | relative efficacy in controlling Orobanche (Orobanche cumana): less efficacious in controlling Orobanche | Control (Orobanche cumana; post-emergence 15 g a.i./ha at T3): 72% | weed control, visual rating: Chenopodium album (Chenopodium album): 87% | weed control, visual rating: Stellaria media (Stellaria media): 100%
